Experimental data published in patent US4764603A, “Stable salts of S-adenosyl-L-methionine with polyanions” (priority 1985, dated 1988).
Where a name gives a salt, the structure may show the parent alone.

Experiments:
physchem = type: physicochemical
Protocol: The salts of the present invention are particularly stable even at substantially higher temperatures than the room temperature: an analysis of their thermal stability versus time has, in fact, shown an unlimited stability of these compounds, when maintained in solid phase at 45° C. However, at 75° C., differentiated behaviors of the various salts prepared are observed with respect to one another.

[1] = Source text: The liquors are removed by simple decantation and the precipitate is washed twice with 10 l of distilled H2 O while keeping the system under strong stirring.
[2] = type: physicochemical
[3] = Hygroscopicity of the lyophilized or dried solid; type: physicochemical
[4] = tested on: transmethylation reactions; conditions: cited from earlier work
edema = conditions: carrageenin and white-of-egg acute edema; adjuvant arthritis; cited from earlier work
pain from myotasis = conditions: in vivo; cited from earlier work
steatosis = conditions: diet; alcohol, carbon tetrachloride, bromobenzene; cited from earlier work
cholestasis = conditions: in vivo; cited from earlier work
[5] = tested on: osteoarthritis, Parkinson's disease, disorder of sleep, depression, atherosclerosis; conditions: cited from earlier work
H ribonuclease = conditions: cited from earlier work
[6] = tested on: methylene tetrahydrofolic reductase; conditions: cited from earlier work
[7] = tested on: ethanolamianephosphate cytidyltransferase; conditions: cited from earlier work

C[S+](CC[C@H](N)C(=O)O)C[C@H]1O[C@@H](n2cnc3c(N)ncnc32)[C@H](O)[C@@H]1O (stereo partly drawn) [Example 5]
stability of the salt at 45° C. (physchem): unlimited
thermal stability at 75° C. versus SAM chloride and the double salt SAM^+.HSO4^-.H2 SO4.2CH3 C6 H4 SO3 H (physchem): higher stability
half-life (physchem; solid phase, half-life time at 75° C.): > 240 h
solubilization at pH 7 ([1]; pH 7): rapidly solubilized
residual acidity [2]: negligible
hygroscopicity [3]: nonhygroscopic

C[S+](CC[C@H](N)C(=O)O)C[C@H]1O[C@@H](n2cnc3c(N)ncnc32)[C@H](O)[C@@H]1O (stereo partly drawn) [Example 2]
solubilisation time / rate at pH >4 relative to Example 1 [1]: increase in solubilisation times
hygroscopicity [3]: nonhygroscopic

Nc1ncnc2c1ncn2[C@@H]1O[C@H](CSCC[C@H](N)C(=O)O)[C@@H](O)[C@H]1O [SAH, S-adenosyl-homocysteine]
inhibition of transmethylation reactions [4]: powerful inhibitor

C[S+](CC[C@H](N)C(=O)O)C[C@H]1O[C@@H](n2cnc3c(N)ncnc32)[C@H](O)[C@@H]1O (stereo partly drawn) [Example 7]
thermal stability at 75° C. versus SAM chloride and the double salt SAM^+.HSO4^-.H2 SO4.2CH3 C6 H4 SO3 H (physchem): higher stability

C[S+](CC[C@H](N)C(=O)O)C[C@H]1O[C@@H](n2cnc3c(N)ncnc32)[C@H](O)[C@@H]1O (stereo partly drawn) [Example 3]
thermal stability at 75° C. versus SAM chloride and the double salt SAM^+.HSO4^-.H2 SO4.2CH3 C6 H4 SO3 H (physchem): higher stability
solubilisation time / rate at pH >4 relative to Example 1 [1]: slower rate of solubilization
hygroscopicity [3]: nonhygroscopic

C[S+](CCCN)C[C@H]1O[C@@H](n2cnc3c(N)ncnc32)[C@H](O)[C@@H]1O (stereo partly drawn) [deca-SAM, S-adenosyl-(5')-3-methylthiopropylamine]
inhibition of transmethylation reactions [4]: inhibitor

C[S+](CC[C@H](N)C(=O)O)C[C@H]1O[C@@H](n2cnc3c(N)ncnc32)[C@H](O)[C@@H]1O (stereo partly drawn) [Example 9]
stability of the salt at 45° C. (physchem): unlimited
thermal stability at 75° C. versus SAM chloride and the double salt SAM^+.HSO4^-.H2 SO4.2CH3 C6 H4 SO3 H (physchem): higher stability
solubilization at pH 6 ([1]; pH 6): solubilizes rapidly
residual acidity [2]: negligible
hygroscopicity [3]: nonhygroscopic

C[S@@+](CC[C@H](N)C(=O)O)C[C@H]1O[C@@H](n2cnc3c(N)ncnc32)[C@H](O)[C@@H]1O [SAM, 5'-[[(3S)-3-amino-3-carboxy-propyl]methyl-(S)-sulfone]-5'-deoxyadenosine]
anti-inflammatory effect (edema): ANTI-INFLAMMATORY
analgesic effect (pain from myotasis): ANALGESIC
hepatoprotective effect (steatosis): HEPATOPROTECTIVE
bile fluidifying effect (cholestasis): BILE FLUIDIFYING
clinical effect: akinesia and rigidity ([5]; Parkinson's disease): IMPROVES AKINESIA
effect on the action of levodopa ([5]; Parkinson's disease): ENHANCING
clinical effect: psycho-affective sphere ([5]; atherosclerosis): IMPROVES
effect on sleep ([5]; disorder of sleep mechanism or of waking-sleeping rhythm): SLEEP INDUCING
antidepressant effect ([5]; in vivo): ANTIDEPRESSANT
clinical effect: (depressive) symptomatology ([5]; in vivo): REDUCES OR RESOLVES
clinical effect: muscular spasms ([5]; osteoarthritis): improves
inhibition of H ribonuclease (H ribonuclease): inhibitor
inactivation of H ribonuclease (H ribonuclease; from calf thymus gland): irreversible inactivation
inhibition of methylene tetrahydrofolic reductase [6]: inhibitor
inhibition of ethanolaminephosphate cytidyltransferase [7]: inhibitor

C[S+](CC[C@H](N)C(=O)O)C[C@H]1O[C@@H](n2cnc3c(N)ncnc32)[C@H](O)[C@@H]1O (stereo partly drawn) [Example 4]
half-life time at 75° C. (physchem): more than one
stability of the salt at 45° C. (physchem): unlimited
thermal stability at 75° C. versus SAM chloride and the double salt SAM^+.HSO4^-.H2 SO4.2CH3 C6 H4 SO3 H (physchem): higher stability
solubilization at pH >4 [1]: solubilizes rapidly
residual acidity [2]: negligible
hygroscopicity [3]: nonhygroscopic

C[S+](CC[C@H](N)C(=O)O)C[C@H]1O[C@@H](n2cnc3c(N)ncnc32)[C@H](O)[C@@H]1O (stereo partly drawn) [Example 1, salt of SAM with the polyparastyrene sulfonate]
stability of the salt at 45° C. (physchem): unlimited
thermal stability at 75° C. versus SAM chloride and the double salt SAM^+.HSO4^-.H2 SO4.2CH3 C6 H4 SO3 H (physchem): higher stability
